Where a name gives a salt, the structure may show the parent alone.
What was measured:
human spermatozoa [1] = experiment: Acrosome assay, protocol 1 (3h incubation with compound, no agonist; flow cytometry, PNA); format: cell-based; conditions: assay 'Acrosome', incubation_time 3h
Experimental: The acrosome assays utilize a high-throughput flow cytometer (S1 Fig) to score for compounds inducing the acrosome reaction, using peanut agglutinin conjugated to a fluorescent dye to label the outer acrosomal membrane. We have developed two different screening protocols, named ‘acrosome 1’ and ‘acrosome 2’ (S1 Fig). […] This addition allowed measurement of inhibition of acrosome reaction (Fig 2B).
(§1) In both experimental protocols, 20 μL of pooled cells (at 1 M/mL concentration) were capacitated for 3 h in presence of compounds at 37°C and 5% CO2. In protocol a, cells were then stained with PNA-Alexa647 (ThermoFisher, 1 mg/mL, final dilution 1:1000) and Hoechst dye for 30 min at 37°C and 5% CO2, followed by 10 min fixation at RT by adding 20 μL of 4% paraformaldehyde (Sigma) in PBS. In mode b, a cocktail of progesterone, prostaglandin A and NH4Cl was added to all compound wells and incubated for an additional 1 h at 37°C and 5% CO2 to induce acrosome reaction. This was followed by fixation and staining protocol as for mode a. In both protocols fixatives and stains were removed and cells were resuspended in PBS, using a 405 platewasher. Plates were then measured on a Novocyte Advanteon high-throughput flow cytometer. Gating of data has been performed using the flow cytometer software to export counts of gated populations. The Acrosome 1 protocol using 3h incubation with compounds was run in 7 separate donor pools. The Acrosome 2 protocol using 3h incubation with compound followed by 1h stimulation of acrosome reaction was run in 5 separate donor pools.
(§2) For cell painting imaging data, plates of images were imported into OMERO [70]. Cell segmentation and feature extraction were performed using CellProfiler 3 [71] and using instructions from to normalize data. Timelapse data of motility assays was processed as previously described. Acrosome flow cytometry data was processed using NovoCyte Express (PerkinElmer), to gate out background debris, select for single cells and calculate percentage values of acrosome positive events. Sperm viability flow cytometry data was processed using iQue Forecyt (Satorius) to gate out background debris, select for single cells and calculate percentage values of propidium iodide positive events. For all sperm functional assays, data was normalized to DMSO control wells. Each plate had 16 DMSO wells. A median value of all 16 wells was used to calculated percentage change (pct_ch = ((value / DMSO_median) -1) * 100). For sperm viability we calculated fold-change (fc = 1 − (value / DMSO_median)). For each compound we calculated a p-value using a Welch’s t-test implemented in scipy (scipy.stats.ttest_ind) comparing a compounds effect to DMSO controls.

spermatozoa = test system: spermatozoa; design: method as in per compound as listed in column References of Table 1; conditions: summaries of reported effects; ref per compound as listed in Table 1; cited from earlier work
human spermatozoa [2] = experiment: Motility assay (non-capacitating conditions); format: cell-based; conditions: for sperm motility and/or acrosome reacted cells (unsupervised clustering): cluster in Fig 3A heatmap, 30 μM
Experimental: (§3) To compare the effects of STB compounds on specific sperm functions (e.g. motility, acrosome reaction, viability), we screened them in multiple phenotypic functional assays described below. Each sperm function assay has been repeated in multiple donor pools (see Materials and methods), where each pool consists of cells donated from at least 3 different donors to address donor to donor variability. Each compound has been tested at two concentrations, 10 and 30 μM, and normalized to vehicle controls (DMSO, see Materials and methods). We have modified our assays from the previously published workflow by increasing incubation time and introducing conditions that support capacitation, which is a sperm maturation process required for fertilization. These changes expand the range of targets that we can explore in our assays. Our live-sperm-based high-throughput motility assays use an automated microscope to record short timelapse movies. These assays can be run in different protocols (S1 Fig). […] In this protocol, cells are incubated with compounds for 10 min prior to the first motility read-out. A second and third motility read-out were performed after 3h and 6h incubation. The second protocol, denoted ‘capacitation assay’, utilises conditions that support capacitation (S1 Fig). In this protocol, cells are kept in conditions supporting capacitation for 30 minutes prior to 30 minutes incubation with compound, followed by motility read-out. Both protocols allow sperm motility to be measured (0.5 sec time-lapse movies allow tracking of cells and calculation of sperm kinematics). In addition, the capacitation assay also scores hyperactivation (i.e. distinct movement patterns concomitant with capacitation which are crucial for fertilization) (Fig 2A).
Cells were rested for 1 h post density gradient centrifugation. 10 μL assay buffer was dispensed into assay ready plates, plates were put onto a shaker instrument for 30 seconds using 1,000 rpm, followed by a short pulse centrifugation. Plates were incubated for 15–30 mins at 37°C prior to addition of 10 μL of pooled cells (at 1 M/mL concentration). Plates were then incubated in a Yokogawa CV7000 microscope set at 37°C for 10 min prior to imaging. Imaging a 384-well plate requires ≤ 20 min using the following settings: 2 positions per well, 0.5 sec timelapse movies (3x binning; 11 ms exposure time, 22 ms interval time, […]). A second and a third timepoint was recorded after 3 h, and 6 h incubation at 37°C. Data has been processed as described in [8]. Assay results are from 5 separate donor pools.
as §2

human spermatozoa [3] = experiment: Authors' own unpublished screening campaigns ('This study'); format: cell-based
From the text: Because there is so little known about the molecular mechanisms that control sperm motility, we are unable to develop hypotheses of potential targets when new hits are identified in the sperm motility assay. However, it is now well-established that features derived from images in phenotypic assays, when compared to phenotypes measured on reference compounds, can accurately stratify genetic or chemical perturbations in phenotypic screens. […] Compound annotations are included in the dataset derived from the STB and indicate that Enzymes/Kinases, Receptors, Channels and Transporters are the most represented target of the STB compound classes (Fig 1D).
List of compounds included in Sperm Toolbox. Published Phenotypes are summaries of reported effects on sperm function related to other processes (e.g. spermatogenesis, liquefaction, or ejaculation).

LRRK2 kinase = conditions: annotated as; cited from earlier work
HepG2 = HepG2 cytotoxicity assay (resazurin based); format: cell-based; conditions: 70h incubation
HeLa = HeLa cell painting cytotoxicity assay; format: cell-based; conditions: 24h compound incubation
Experimental: The HeLa-based assay uses the cell painting assay [11], while the HepG2 assay utilizes a resazurin based viability read-out [64].
Cell were incubated with compounds for 24h.
• 10 μL of MitoTracker (Life Technologies, M22426, 1 mM stock in DMSO as recommended by the vendor) is added to 50 μL of media (1:2000 final dilution) • Phalloidin-Alexa594 (Life Technologies, A12381, 66 μM stock in methanol as recommended by the vendor, 1:500 final dilution) • WGA-Alexa594 (Life Technologies, W11262, 5 mg/mL stock, 1:250 final dilution) was used • DAPI (5 mg/mL stock; 1:1000 final dilution) was used to stain DNA • 20 μL of staining solution was used • PBS was used for washing steps
For cell painting imaging data, plates of images were imported into OMERO [70]. Cell segmentation and feature extraction were performed using CellProfiler 3 [71] and using instructions from [11] to normalize data.

human spermatozoa [4] = experiment: Capacitation assay (motility and hyperactivation under capacitating conditions); format: cell-based; conditions: cluster in Fig 3A; 30 min capacitation then 30 min with compound
Experimental: as §3
Cells were capacitated for 30 min at 37°C and 5% CO2. 10 μL assay buffer was dispensed into assay ready plates, plates were put onto a shaker instrument for 30 seconds using 1,000 rpm, followed by a short pulse centrifugation. Plates were incubated for 15–30 mins at 37°C and 5% CO2 prior to addition of 10 μL of pooled cells (at 1 M/mL concentration). This was followed by a 20 min compound incubation step at 37°C and 5% CO2. Plates were then incubated in our CV7000 microscope set at 37°C and 5% CO2 for 10 min prior to imaging. […]
For cell painting imaging data, plates of images were imported into OMERO [70]. […] A median value of all 16 wells was used to calculated percentage change (pct_ch = ((value / DMSO_median) -1) * 100). For sperm viability we calculated fold-change (fc = 1 − (value / DMSO_median)). For each compound we calculated a p-value using a Welch’s t-test implemented in scipy (scipy.stats.ttest_ind) comparing a compounds effect to DMSO controls.

human spermatozoa [5] = experiment: Acrosome assay, protocol 2 (3h with compound, then 1h agonist cocktail); format: cell-based; conditions: cluster in Fig 3A; 3h with compound then agonist mix
Experimental: The acrosome assays utilize a high-throughput flow cytometer (S1 Fig) to score for compounds inducing the acrosome reaction, using peanut agglutinin conjugated to a fluorescent dye to label the outer acrosomal membrane. We have developed two different screening protocols, named ‘acrosome 1’ and ‘acrosome 2’ (S1 Fig). Both protocols are capable of measuring induction of the acrosome reaction upon compound incubation. However, in the acrosome 2 assay, a mixture of physiological agonists of the acrosome reaction is used after cells have been incubated with compounds for 3h under conditions that support capacitation. This addition allowed measurement of inhibition of acrosome reaction (Fig 2B).
as §1
as §2, with “Sperm viability flow cytometry data was processed using iQue Forecyt (Satorius) to gate out background debris, select for single cells and calculate percentage values of propidium iodide positive events. For all sperm functional assays, data was normalized to DMSO control wells. Each plate had 16 DMSO wells.” left out

human spermatozoa [6] = experiment: Sperm viability assay (propidium iodide, flow cytometry); format: cell-based; conditions: 3h with compound
Experimental: In this assay, cells are incubated for 3h with compound in non-capacitating media, prior to viability assessment.
Cells were incubated with compounds for a total of 3h at 37°C. 20 min prior, propidium iodide was added (1.5 mM solution, Sigma, final dilution 1:2000). Plates were analysed using a Satorius iQue Screener with settings to allow for a sampling time of ≤30 min per 384-well plate. Gating of data has been performed using the flow cytometer software to export counts of gated populations. This assay was tested in 5 separate donor pools.
as §2

[7] = screening_concentration_M 9.99e-6
[8] = screening_concentration_M 2.991e-5

What does the source list for `N=C(N)Nc1nc2ccccc2[nH]1` [2-Guanidinobenzimidazole]?
ch (percentage change vs DMSO median), Acrosome (human spermatozoa [1]; [7]): 0.2236%; ch (percentage change vs DMSO median), Acrosome (human spermatozoa [1]; [8]): 0.07571%; Published Phenotype (spermatozoa): Reduces sperm motility

For `CNc1ccc2oc(C[C@H]3O[C@@]4(CC[C@H]3C)O[C@H]([C@H](C)C(=O)c3ccc[nH]3)[C@H](C)C[C@H]4C)nc2c1C(=O)O` [A23187], which “sperm motility and/or acrosome reacted cells (unsupervised clustering)” value (human spermatozoa [2]) is on record?
The value was “significant reduction of sperm motility and/or increased amounts of acrosome reacted cells”.

What about the “Published Phenotype” value (spermatozoa) of the same compound?
The value was “Induces acrosome reaction”.

For `NC(=O)Nc1cc(-c2cccc(F)c2)sc1C(=O)N[C@H]1CCCNC1` [AZD 7762 hydrochloride], which “Phenotype observed in own screening campaigns (Published Phenotype, References 'This study')” value (“Phenotype observed” for short) (human spermatozoa [3]) is on record?
The value was “Reduces sperm motility”.

With `CCCCC(CC)CNC(=N)NC(=N)NCCCCCCNC(=N)NC(=N)NCC(CC)CCCC` (stereo not drawn) [Alexidine dihydrochloride] as the compound, how does the “sperm motility and/or acrosome reacted cells (unsupervised clustering)” value (human spermatozoa [2]) read?
The value was “significant reduction of sperm motility and/or increased amounts of acrosome reacted cells”.

And the “Published Phenotype” value (spermatozoa)?
The value was “Reduces sperm motility”.

For `CCOc1ccc(-c2nc(-c3cccc4c3CCC4NCCO)no2)cc1OCC` (stereo not drawn) [CYM 5442 hydrchloride], which “Phenotype observed” value (human spermatozoa [3]) is on record?
Its value is “Reduces sperm motility; induces acrosome reaction”.

What does the source list for `COc1cc(N2CCOCC2)ccc1Nc1ncc(F)c(Nc2ccccc2NS(C)(=O)=O)n1` [CZC 25146]?
sperm motility (human spermatozoa [2]): decrease sperm motility; LRRK2 inhibition (LRRK2 kinase): potent LRRK2 inhibitor

With `Nc1nc(Cl)nc2c1ncn2[C@@H]1O[C@H](CO)[C@@H](O)[C@@H]1F` [Clofarabine] as the compound, how does the “general cytotoxicity (HepG2)” value (HepG2) read?
The value was “do not show effects”.

And the “general cytotoxicity (HeLa)” value (HeLa)?
Its value is “do not show effects”.

What about the hyperactive motility (human spermatozoa [4]) of the same compound?
The hyperactive motility was “significantly increased”.

And the “acrosome reaction (acrosome reacted cells)” value (human spermatozoa [5])?
The value was “significantly increased”.

And the “effects on sperm viability” value (human spermatozoa [6])?
Its value is “do not show effects”.

What about the “Published Phenotype” value (spermatozoa) of the same compound?
The value was “Enhances sperm motility”.

With `Clc1ccc(C(OCCN2CCCCC2)c2ccccc2)cc1` (stereo not drawn) [Cloperastine hydrochloride] as the compound, how does the “Phenotype observed” value (human spermatozoa [3]) read?
Its value is “Reduces sperm motility”.

With `CCS(=O)(=O)Nc1ccc2c(c1)/C(=C(/Nc1ccc(CN3CCCCC3)cc1)c1ccccc1)C(=O)N2` [Hesperadin hydrochloride] as the compound, how does the “Phenotype observed” value (human spermatozoa [3]) read?
The value was “Reduces sperm motility”.

What does the source list for `C[C@]1(O)C[C@@H](c2nc(-c3ccc4ccc(-c5ccccc5)nc4c3)c3c(N)nccn32)C1` [Linsitinib]?
general cytotoxicity (HepG2) (HepG2): do not show effects; general cytotoxicity (HeLa) (HeLa): do not show effects; hyperactive motility (human spermatozoa [4]): significantly increased; acrosome reaction (acrosome reacted cells) (human spermatozoa [5]): significantly increased; effects on sperm viability (human spermatozoa [6]): do not show effects; Published Phenotype (spermatozoa): enhances sperm motility

For `Cc1ccc(S(=O)(=O)c2ccc([N+](=O)[O-])o2)cc1` [NSC 697923], which “Phenotype observed” value (human spermatozoa [3]) is on record?
The value was “Reduces sperm motility”.

Which “Phenotype observed” value (human spermatozoa [3]) does the source give for `[O-][S+](c1ccccc1)c1ccc2nnnn2n1` (stereo not drawn) [Ro 106–9920] here?
Its value is “Reduces sperm motility”.

For `CCCCCCCCOc1ccc(-c2noc([C@@H]3CCCN3C(=N)N)n2)cc1C(F)(F)F` [SLM 6031434 hydrochloride], which “Phenotype observed” value (human spermatozoa [3]) is on record?
Its value is “Induces acrosome reaction”.

What does the source list for `COc1cc(C)c2c(Oc3cccc(C(F)(F)F)c3)c(OC)cc(NC(C)CCCN)c2n1` (stereo not drawn) [Tafenoquine]?
Phenotype observed in own screening campaigns (Published Phenotype, References 'This study') (human spermatozoa [3]): Reduces sperm motility; induces acrosome reaction; sperm motility and/or acrosome reacted cells (unsupervised clustering) (human spermatozoa [2]): significant reduction of sperm motility and/or increased amounts of acrosome reacted cells

Which “general cytotoxicity (HepG2)” value (HepG2) does the source give for `COc1cc2c(cc1OC)-c1c/c(=N\c3c(C)cc(C)cc3C)n(C)c(=O)n1CC2` [Trequinsin hydrochloride] here?
Its value is “do not show effects”.

What about the “general cytotoxicity (HeLa)” value (HeLa) of the same compound?
Its value is “do not show effects”.

What about the hyperactive motility (human spermatozoa [4]) of the same compound?
The hyperactive motility was “significantly increased”.

And the “acrosome reaction (acrosome reacted cells)” value (human spermatozoa [5])?
The value was “significantly increased”.

And the “effects on sperm viability” value (human spermatozoa [6])?
Its value is “do not show effects”.

And the “Published Phenotype” value (spermatozoa)?
Its value is “Increases hyperactivated sperm; increases penetration of sperm into viscous media, increases motility”.

With `O=C(N1CCCCC1)N1CCCCC1Cc1ccccc1` (stereo not drawn) [compound 183] as the compound, how does the “ch (percentage change vs DMSO median), Acrosome” value (human spermatozoa [1]; [7]) read?
Its value is 0.955%.

What about the “ch (percentage change vs DMSO median), Acrosome” value (human spermatozoa [1]; [8]) of the same compound?
The value was 1.376%.

What about the “Published Phenotype” value (spermatozoa) of the same compound?
The value was “Reduces acrosome reaction”.

From publication PMC10878532, “Sperm Toolbox—A selection of small molecules to study human spermatozoa” (PLOS ONE, 2024)
